The values below come from article PMC8597046, “Use of Mixture Dosing and Nonlinear Mixed Effect Modeling of Eight Environmental Contaminants in Rabbits to Improve Extrapolation Value of Toxicokinetic Data” (Environmental Health Perspectives, 2021).

The nature of data set [1]: TK assay, intravenous mixture dosing: serum concentrations and noncompartmental analysis (sparse data). The following applies: IV mixture dosing, NCA, n=12. As for the experimental part: (§1) The experiment was carried out on thirty 10-wk old female New Zealand white rabbits (INRA 1777 line) weighing 2.37±0.14kg . […] Blood samples were taken at the designated time points post IV and oral administration: 15 min, 30 min, 1 h, 2 h, 4 h, 8 h, 12 h, 24 h, 3 d, 7 d, and 28 d from groups of 3 or 6 rabbits at each sampling time. Each rabbit was sampled 3 times and 3 rabbits were sampled at each sampling time, except at 30 min post administration, when 6 samples were collected to provide a sufficient blood volume for assaying the compounds. The doses and assay time points were selected to allow the calculation of TK parameters (Table 1) based on preliminary TK data. Residual concentrations of the compounds, and their possible evolution over time, were determined by sampling six entirely untreated rabbits during the TK study on the day of drug administrations, then 14 d and 28 d later.
(§2) The volume administered was adjusted to the animal’s body weight (BW) recorded the day before.
(§3) Intravenous administrations were performed via an indwelling catheter (22G Terumo, 0.9×25mm ) just after its insertion into an ear vein. […] For oral administrations, the mixture of all compounds ( 4mL/kg ) was deposited directly in the mouth of rabbits using a catheter (22G BD Insyte 22G, 0.9×25mm ). Prior to the study, the rabbits had been trained to gradually swallow water and then corn oil.
(§4) Blood samples were collected from the auricular artery using a 20 G needle ( 0.9×25mm ) and a dry tube. The first two blood samples were 8–10mL in volume, whereas a large volume (about 20mL ) was obtained antemortem immediately after electrical stunning (95LX rabbit stunner; Burdis), followed by exsanguination.
(§5) Serum concentration-time profiles of the different compounds were first analyzed using a noncompartmental approach (NCA) involving a sparse data option. Sparse data methodology consists of calculating TK parameters based on the mean profile of all the subjects in the dataset and is appropriate when a rich data series cannot be obtained, as in the present experiment ([FDA 1999]). The area under the concentration time curve ( AUC0−tlast ) and the area under the first moment curve ( AUMC0−tlast ) from dosing time ( t=0 ) to the time of the last measurable concentration were calculated using the linear trapezoidal rule after IV and oral dosing. The area under the serum concentration time curve from dosing time to infinity ( AUC0−inf ) was obtained by adding to AUC0−tlast the area extrapolated from the time of the last measurable concentration to infinity by dividing the last quantifiable serum concentration by the slope of the terminal phase ( λZ ), as estimated by linear regression using the best fit option of Phoenix®.
(§6) The clearance (CL) and apparent clearance (CL_F) were respectively estimated after IV and oral administrations by dividing the administered dose by the AUC0−inf calculated for each analyte.
(§7) The terminal half-life (HL) was estimated with Equation 1: (1) HL=0.69315/λZ where λz is the slope of the terminal phase.
The mean residence time (MRT) was estimated using Equation 3: (3) MRT=AUMCiv0−tlast /AUCiv0−tlast , where AUCMiv0−tlast and AUCiv0−tlast are the values of AUMC0−tlast and AUC0−tlast obtained after IV dosing.
The steady-state volume of distribution ( VSS ) was estimated using Equation 4: (4) VSS=CL×MRT, with CL and MRT as defined above.

Data set [2] in a line: TK assay, oral mixture dosing: serum concentrations and noncompartmental analysis (sparse data). The following applies: oral mixture dosing, NCA, n=12. The method, then:
as §1, §2, §3, §4, §5, §6, §7
The oral bioavailability (F) was estimated using Equation 2: (2) F=AUCvo0−tlast×Doseiv/AUCiv0−tlast×Dosevo, where AUCiv0−tlast and AUCvo0-tlast are the values of AUC0−tlast obtained after IV and oral dosing, respectively, and Doseiv and Dosevo are the IV and oral doses.

Data set [3] is described as follows: Estimation of loading and daily maintenance doses and NLME model simulations. Also noted: species or system female rabbits. Particulars: oral; for Computed maintenance dose: daily; for Computed maintenance dose / Computed loading dose: scaled to the targeted CSS of Table 6. The method, then: The ultimate goal of this TK investigation was to compute a dosage regimen that allowed targeted steady-state serum concentrations to be attained rapidly for a planned TK/TD trial on the reprotoxic effect of a mixture of environmental contaminants in female rabbits. […] With that in mind, the loading and the daily maintenance doses of each compound were evaluated using Equations 12 and 13, respectively.
This risk was also the reason why the NLME model was employed to simulate the time development of the amounts of compounds in the central and peripheral compartments following administration of the daily maintenance dose of each compound over the same duration.
The loading and maintenance doses computed to ensure a nominal CSS of 1 ng/mL were scaled to determine the doses to be administrated by oral route to female rabbits to maintain the targeted CSS .

The conditions of data set [4]: rodents; ref Chang et al. 2012; cited from earlier work.
Data set [5] in a line: Nonlinear mixed effect (NLME) compartmental modeling of merged IV and oral serum concentrations. An excerpt:
A nonlinear mixed effect (NLME) modeling approach was used to analyze simultaneously all data obtained from the different rabbits after both IV and oral administrations and to provide robust estimates of the typical TK parameters.
The primary parameters of the model, namely the volume of distribution of the central compartment (V1), the first-order rate constants ( K10 , K12 , K21 , and Kabs plus K13 , K31 for PFOA) and the bioavailability (F) and their associated precisions [standard error (SE)] were estimated by minimizing an objective function value (OFV) expressed as minus twice the log of the likelihood estimation ( −2LL ). […] Marginal likelihood was approximated by using the Laplacian engine by default and, when this engine was unable to determine the SE of the estimate, the Quasi-Random Parametric Expectation Maximization (QRPEM) was selected.
Between subject variability (BSV) of the parameters was measured using the exponential model θparameter_i=θtv_parameter×exp (ηi), where θparameter_i is the parameter estimated for the ith individual, θtv_parameter is the typical population value of the parameter, and ηi is the deviation associated with the ith individual from the corresponding value of the parameter at the population level.
The distribution of ηi was assumed to be normal with a mean of 0 and a variance ω² . BSV was reported as a coefficient of variation (CV) in the original scale CV(%)=100× exp (ω^2)−1 .
The residual variance was modeled using a combined additive and proportional error model Cobsij=Cpredij(1 + ε1ij) + ε2ij, where Cobsij and Cpredij are respectively the jth observed and predicted concentrations for the ith individual, and ε1ij and ε2ij are the multiplicative and additive residual errors.
Secondary parameters were calculated from the population primary parameters.
The clearance values (CL) were estimated using Equation 5: (5) CL=K10×V1, where V1 is the volume of the central compartment and K10 is the elimination rate constant from the central compartment.
The volume of the peripheral compartment (V2) was estimated with Equation 6: (6) V2=V1×(K12/K21), where K12 and K21 are the distribution rate constants between the central and the peripheral compartments.
The clearance of distribution (Q) was estimated using Equation 7: (7) Q=K12×V1, with […] and K12 as defined above.
The volume of distribution associated with the terminal phase was estimated with Equation 10: (10) VZ=CL/λZ, with λZ as defined above.
The AUC was computed as a secondary parameter using Equation 11: (11) AUC=Dose/CL.
The terminal half-life was estimated with Equation 1, as previously described.

Data set [6] is described as follows: Chronic exposure: daily oral mixture for 17 wk, steady-state serum concentrations. Particulars: serum, mean±SD, n=16, after 17 weeks of oral mixture; MEHP after DEHP dosing. As for the experimental part:
The objective of this preliminary experiment was to check the ability of our approach to determine the loading and maintenance doses of the eight compounds to be administered simultaneously by oral route to reproduce in female rabbits targeted serum concentrations. The experiment was carried out on thirty-two 2-wk old female New Zealand white rabbits (INRA 1777 line) randomly allocated to a treatment and control groups of 16 rabbits weighing 309±45g and 298±62g , respectively. The treated rabbits were orally administrated a mixture of the eight compounds at a dosage corresponding to the sum of the loading and daily maintenance doses followed by daily administrations of the maintenance dose for 17 wk (see the “Estimation of the doses” section). The control group was orally administrated the vehicle for the same duration.
The volume of the maintenance dosing solution ( 1mL/kg ) was weekly adjusted to the mean BW estimated from the known pattern of growth of the INRA 1777 rabbit line. Oral dosing and antemortem blood sampling were performed as previously described.
Blood samples were left to clot for about 20–30 min at ambient temperature and centrifuged for 20 min at 3,000×g at 25°C. The separated serum was stored in glass tubes at −20°C until assayed.

Molecules are shown by their SMILES.

`O=C(O)[C@H]1O[C@@H](Oc2ccc(S(=O)(=O)c3ccc(O)cc3)cc2)[C@H](O)[C@@H](O)[C@@H]1O` [BPSG, bisphenol S glucuronide]: the results for the MRT in data set [1] and in data set [2] (MEHP after oral DEHP) were 3.16 h and 7.66 h, respectively. In addition, the “AUC0−inf” value is 5.18 µM·h in data set [1] (serum) and 15.8 µM·h in data set [2] (serum, MEHP after oral DEHP). The Cmax turned out to be 5.78 µM in data set [1] (serum, doses in Table 2 r3, BPSG after BPS dosing) and 6.91 µM in data set [2] (serum, doses in Table 3 r3, MEHP measured after oral DEHP, BPSG after BPS). Besides, the half-life came to 3.80 h in data set [1] (terminal) and 4.23 h in data set [2] (terminal, MEHP after oral DEHP). Moreover, the Tmax in data set [2] (MEHP after oral DEHP) is listed as 0.27 h.
As to `CCCCC(CC)COC(=O)c1ccccc1C(=O)OCC(CC)CCCC` (stereo not shown) [DEHP, di(2-ethylhexyl)phthalate], in data set [3], the Computed maintenance dose is 0.78 mg/kg and the Computed loading dose is 0.264 mg/kg. For the same molecule, in data set [3] (to maintain serum concentration of 1 ng/mL, daily CL×Css/F, DEHP dose for MEHP in serum), the Daily maintenance dose was 0.013 mg/kg. Further, the Loading dose in data set [3] (to rapidly attain serum concentration of 1 ng/mL, Vss×Css/F, DEHP dose for MEHP in serum) is 0.0044 mg/kg.
Regarding `O=S(=O)(O)C(F)(F)C(F)(F)C(F)(F)C(F)(F)C(F)(F)C(F)(F)C(F)(F)C(F)(F)F` [PFOS, perfluorooctane sulfonate], the Intestinal absorption in data set [4] was 117%. Moreover, the “Oral bioavailability (F)” value in data set [5] (NLME model) was found to be 100%. Besides, the Clearance entry in data set [5] (population secondary parameter, mean) is recorded as “lower than 0.01 L/kg/h”. For the same molecule, in data set [3], the Computed maintenance dose is 0.0013 mg/kg and the Computed loading dose is 0.06 mg/kg. In data set [6], the “Observed CSS” value is 154 ± 25 ng/mL.

Broadly, the MRT is a mean duration of stay, worked out from the concentration-time curve. One may read the Cmax as the highest concentration seen after dosing. In general, half-life refers to the time in which the quantity being followed falls by half. As usually defined, the Tmax is the time from dosing to the highest level.
